Data published in patent publication US8431563B2 (priority 2010, dated 2013).
Where two headings read alike, the source gives them in different places.

What was measured:
[1] = target: T1, interaction between glucokinase (GK) and glucokinase regulatory protein (GKRP) (Homo sapiens, UniProt Q14397); experiment: biochemical; type: binding
T1 sequence (Q14397 1-625): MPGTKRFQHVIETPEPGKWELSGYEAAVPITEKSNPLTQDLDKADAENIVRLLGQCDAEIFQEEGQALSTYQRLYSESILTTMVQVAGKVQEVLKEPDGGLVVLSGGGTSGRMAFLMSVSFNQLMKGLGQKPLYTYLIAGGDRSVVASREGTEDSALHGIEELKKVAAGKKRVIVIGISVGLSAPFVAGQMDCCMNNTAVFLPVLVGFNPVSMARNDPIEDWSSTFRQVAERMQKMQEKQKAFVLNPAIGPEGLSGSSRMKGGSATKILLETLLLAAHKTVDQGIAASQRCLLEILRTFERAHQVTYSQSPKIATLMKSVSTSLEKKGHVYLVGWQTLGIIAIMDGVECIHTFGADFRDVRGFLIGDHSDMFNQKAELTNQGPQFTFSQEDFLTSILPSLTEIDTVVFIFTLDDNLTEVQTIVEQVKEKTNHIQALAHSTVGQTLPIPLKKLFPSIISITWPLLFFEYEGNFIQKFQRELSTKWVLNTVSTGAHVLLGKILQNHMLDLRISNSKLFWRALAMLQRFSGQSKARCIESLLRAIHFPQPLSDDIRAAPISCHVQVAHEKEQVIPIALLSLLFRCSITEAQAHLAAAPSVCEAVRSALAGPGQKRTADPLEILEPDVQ
Outline: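 Measures direct GK–GKRP binding in 20 mM Tris pH 7.5 containing 1 μM sorbitol-6-phosphate, 0.05% BSA and 1 mM DTT. Compound and avi-tagged GKRP sit 20 min at room temperature before GK-fluorescein addition (6 nM in the added buffer); read after 2 h dark incubation at room temperature.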

[2] = target: T2, GKRP (Glucokinase Regulatory Protein) with human His-hepatic GK (Homo sapiens, UniProt Q14397); experiment: biochemical
T2 sequence (Q14397 1-625): T1 sequence (Q14397 1-625)
Outline: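 Product formation, 13C-glucose-6-phosphate from 13C-glucose, was measured directly by LC MS/MS after acetonitrile quench. The GK reaction ran 30 min at room temperature in Tris pH 7.5 buffer with 4 mM MgCl2 and 6% DMSO. The 5× enzyme stock was 30 nM His-tagged human hepatic glucokinase.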

[3] = avi-tagged GKRP, GK-fluorescein, AlphaScreen beads, read-out: GK-GKRP IC50 (Binding)
[4] = 13C-glucose-6-phosphate formation, 280 nM GKRP (10×), 30 nM GK (5×), read-out: GK-GKRP EC50 (LC MS/MS-2)

## C[C@H]1CN(S(=O)(=O)c2ccc(N)nc2)CCN1c1ncc(C(O)(C(F)(F)F)C(F)(F)F)cn1 [Example 93, 2-(2-((2S)-4-((6-amino-3-pyridinyl)sulfonyl)-2-methyl-1-piperazinyl)-5-pyrimidinyl)-1,1,1,3,3,3-hexafluoro-2-propanol]
[1]; [3]
  IC50: 0.19 µM
[2]; [4]
  EC50: 0.196 µM

## CCOC(=O)CC1COCCN1C[C@H]1CN(S(=O)(=O)c2cccs2)CCN1c1ccc(C(C)(O)C(F)(F)F)cc1 (mixture of isomers) [Example 113]
[1]; [3]
  IC50: 0.333 µM
[2]; [4]
  EC50: 0.308 µM

## C[C@H]1COCCN1C[C@H]1CN(S(=O)(=O)c2ccc(N)nc2)CCN1c1ccc(C(C)(O)C(F)(F)F)cc1 (single isomer, unassigned) [Example 125 Peak #2]
[1]; [3]
  IC50: 0.007 µM
[2]; [4]
  EC50: 0.018 µM

## C[C@H]1COCCN1C[C@H]1CN(S(=O)(=O)c2ccc(N)nc2)CCN1c1ncc(C(C)(O)C(F)(F)F)cn1 (mixture of isomers) [Example 129, 2-(2-((2S)-4-((6-amino-3-pyridinyl)sulfonyl)-2-(((3S)-3-methyl-4-morpholinyl)methyl)-1-piperazinyl)-5-pyrimidinyl)-1,1,1-trifluoro-2-propanol]
[1]; [3]
  IC50: 0.036 µM
[2]; [4]
  EC50: 0.099 µM

## CC(C)N(C[C@H]1CN(S(=O)(=O)c2cccs2)CCN1c1ccc(C(C)(O)C(F)(F)F)cc1)S(=O)(=O)c1cccnc1 (mixture of isomers) [Example 198, N-(1-methylethyl)-N-(((2R)-4-(2-thiophenylsulfonyl)-1-(4-(2,2,2-trifluoro-1-hydroxy-1-methylethyl)phenyl)-2-piperazinyl)methyl)-3-pyridinesulfonamide]
[1]; [3]
  IC50: 0.108 µM
[2]; [4]
  EC50: 0.177 µM

## CC(O)C#Cc1cc(C(O)(C(F)(F)F)C(F)(F)F)ccc1N1CCN(S(=O)(=O)c2cccs2)CC1 (racemic) [Example 151, 4-(2-(4-(2-thiophenylsulfonyl)-1-piperazinyl)-5-(2,2,2-trifluoro-1-hydroxy-1-(trifluoromethyl)ethyl)phenyl)-3-butyn-2-ol]
[1]; [3]
  IC50: 0.396 µM
[2]; [4]
  EC50: 0.994 µM

## C[C@H]1COCCN1C[C@H]1CN(S(=O)(=O)c2cccs2)CCN1c1ccc(C(O)(CO)C(F)(F)F)cc1 (single isomer, unassigned) [Example 83 Peak #2]
[1]; [3]
  IC50: 0.022 µM
[2]; [4]
  EC50: 0.016 µM

## CCC(C#Cc1cc(C(O)(C(F)(F)F)C(F)(F)F)ccc1N1CCC(S(=O)(=O)c2ccccc2)CC1)OC (racemic) [Example 163, 1,1,1,3,3,3-hexafluoro-2-(3-(3-methoxypent-1-ynyl)-4-(4-(phenylsulfonyl)piperidin-1-yl)phenyl)-2-propanol]
[1]; [3]
  IC50: 0.602 µM
[2]; [4]
  EC50: 0.807 µM

## C[C@H]1CN(S(=O)(=O)c2ccc(N)s2)CCN1c1ncc(C(C)(O)C(F)(F)F)cn1 (mixture of isomers) [Example 137, 2-(2-((2S)-4-((5-amino-2-thiophenyl)sulfonyl)-2-methyl-1-piperazinyl)-5-pyrimidinyl)-1,1,1-trifluoro-2-propanol]
[1]; GK-GKRP IC50 (Binding)
  IC50: 0.281 µM
[2]; GK-GKRP EC50 (LC MS/MS-2)
  EC50: 0.658 µM

## CC(O)(c1ccc(N2CCN(S(=O)(=O)c3cccs3)C[C@@H]2CS(=O)(=O)c2ccc(F)cc2)cc1)C(F)(F)F (mixture of isomers) [Example 191 Peak#1, 1,1,1-trifluoro-2-(4-((2R)-2-(((4-fluorophenyl)sulfonyl)methyl)-4-(2-thiophenylsulfonyl)-1-piperazinyl)phenyl)-2-propanol]
[1]; [3]
  IC50: 0.177 µM
[2]; [4]
  EC50: 0.166 µM

## CC1(C)C(=O)NCCN1C[C@H]1CN(S(=O)(=O)c2cccs2)CCN1c1ccc(C(C)(O)C(F)(F)F)cc1 (single isomer, unassigned) [Example 180 Peak #1]
[1]; [3]
  IC50: 0.011 µM
[2]; [4]
  EC50: 0.04 µM

## CC(C)N(C[C@H]1CN(S(=O)(=O)c2ccc(N)s2)CCN1c1ncc(C(O)(C(F)(F)F)C(F)(F)F)cn1)S(C)(=O)=O [Example 231, N-(((2R)-4-((5-amino-2-thiophenyl)sulfonyl)-1-(5-(2,2,2-trifluoro-1-hydroxy-1-(trifluoromethyl)ethyl)-2-pyrimidinyl)-2-piperazinyl)methyl)-N-(1-methylethyl)methanesulfonamide]
[1]; [3]
  IC50: 0.007 µM
[2]; [4]
  EC50: 0.02 µM

## CC(=O)N(C[C@H]1CN(S(=O)(=O)c2cccs2)CCN1c1ccc(C(C)(O)C(F)(F)F)cc1)C(C)C (mixture of isomers) [Example 196, N-(1-methylethyl)-N-(((2S)-4-(2-thiophenylsulfonyl)-1-(4-(2,2,2-trifluoro-1-hydroxy-1-methylethyl)phenyl)-2-piperazinyl)methyl)acetamide]
[1]; [3]
  IC50: 0.466 µM
[2]; [4]
  EC50: 0.391 µM

## Nc1ccc(S(=O)(=O)N2CCN(c3ncc(C(O)(C(F)(F)F)C(F)(F)F)cn3)[C@@H](CC3CCOCC3)C2)cn1 [Example 130, 2-(2-((2S)-4-((6-amino-3-pyridinyl)sulfonyl)-2-(tetrahydro-2H-pyran-4-ylmethyl)-1-piperazinyl)-5-pyrimidinyl)-1,1,1,3,3,3-hexafluoro-2-propanol]
[1]; [3]
  IC50: 0.062 µM
[2]; [4]
  EC50: 0.134 µM

## CC(O)(c1ccc(N2CCN(S(=O)(=O)c3cccs3)C[C@@H]2CN2CCOC[C@H]2CO)cc1)C(F)(F)F (single isomer, unassigned) [Example 110 Peak #1]
[1]; GK-GKRP IC50 (Binding)
  IC50: 0.101 µM
[2]; GK-GKRP EC50 (LC MS/MS-2)
  EC50: 0.156 µM

## C[C@H]1COCCN1C[C@H]1CN(S(=O)(=O)c2ccc(N)nc2)CCN1c1ccc([C@@](C)(O)C(F)(F)F)cc1 (single isomer, unassigned) [Example 125 Peak #1]
[1]; [3]
  IC50: 0.004 µM
[2]; [4]
  EC50: 0.026 µM

## CC1(CN(C[C@H]2CN(S(=O)(=O)c3cccs3)CCN2c2ccc(C(C)(O)C(F)(F)F)cc2)S(C)(=O)=O)COC1 (mixture of isomers) [Example 216, N-((3-methyl-3-oxetanyl)methyl)-N-(((2S)-4-(2-thiophenylsulfonyl)-1-(4-(2,2,2-trifluoro-1-hydroxy-1-methylethyl)phenyl)-2-piperazinyl)methyl)methanesulfonamide]
[1]; [3]
  IC50: 0.172 µM
[2]; [4]
  EC50: 0.194 µM

## CC1(COC[C@H]2CN(S(=O)(=O)c3cccs3)CCN2c2ccc(C(C)(O)C(F)(F)F)cc2)COC1 (mixture of isomers) [Example 117, 1,1,1-trifluoro-2-(4-((2R)-2-(((3-methyl-3-oxetanyl)methoxy)methyl)-4-(2-thiophenylsulfonyl)-1-piperazinyl)phenyl)-2-propanol]
[1]; [3]
  IC50: 0.467 µM
[2]; [4]
  EC50: 0.463 µM

## CC(O)(c1ccc(N2CCN(S(=O)(=O)c3cccs3)C[C@@H]2CN(Cc2cccnc2)S(C)(=O)=O)cc1)C(F)(F)F (mixture of isomers) [Example 221, N-(3-pyridinylmethyl)-N-(((2S)-4-(2-thiophenylsulfonyl)-1-(4-(2,2,2-trifluoro-1-hydroxy-1-methylethyl)phenyl)-2-piperazinyl)methyl)methanesulfonamide]
[1]; [3]
  IC50: 0.013 µM
[2]; [4]
  EC50: 0.041 µM

## O=S(=O)(c1cccs1)N1CCN(c2ccc(C(O)(C(F)(F)F)C(F)(F)F)cc2C#CCO)CC1 [Example 152, 3-(2-(4-(2-thiophenylsulfonyl)-1-piperazinyl)-5-(2,2,2-trifluoro-1-hydroxy-1-(trifluoromethyl)ethyl)phenyl)-2-propyn-1-ol]
[1]; [3]
  IC50: 0.712 µM
[2]; [4]
  EC50: 0.557 µM

## CC1(C)C(=O)NCCN1C[C@H]1CN(S(=O)(=O)c2cccs2)CCN1c1ccc(C(C)(O)C(F)(F)F)cc1 (mixture of isomers) [Example 180, 3,3-dimethyl-4-(((2S)-4-(2-thiophenylsulfonyl)-1-(4-(2,2,2-trifluoro-1-hydroxy-1-methylethyl)phenyl)-2-piperazinyl)methyl)-2-piperazinone]
[1]; [3]
  IC50: 0.022 µM
[2]; [4]
  EC50: 0.051 µM

## CC(O)(c1ccc(N2CCN(S(=O)(=O)c3cccs3)C[C@@H]2CSc2ccccc2)cc1)C(F)(F)F (mixture of isomers) [Example 186, 1,1,1-trifluoro-2-(4-((2R)-2-((phenylsulfanyl)methyl)-4-(2-thiophenylsulfonyl)-1-piperazinyl)phenyl)-2-propanol]
[1]; read-out: GK-GKRP IC50 (Binding)
  IC50: 0.014 µM
[2]; read-out: GK-GKRP EC50 (LC MS/MS-2)
  EC50: 0.024 µM

## CC(O)(c1ccc(N2CCN(S(=O)(=O)c3cccs3)C[C@@H]2CN2[C@@H]3COC[C@H]2CC(O)C3)cc1)C(F)(F)F (stereo partly drawn) [Example 107, 9-(((2S)-4-(2-thiophenylsulfonyl)-1-(4-(2,2,2-trifluoro-1-hydroxy-1-methylethyl)phenyl)-2-piperazinyl)methyl)-3-oxa-9-azabicyclo[3.3.1]nonan-7-ol (endo)]
[1]; [3]
  IC50: 0.005 µM
[2]; [4]
  EC50: 0.016 µM
